Molecular target: T1, Tyrosine-protein kinase ABL1 [229-512] (Homo sapiens, UniProt P00519)
T1 construct: 229-512
T1 sequence (P00519 whole entry): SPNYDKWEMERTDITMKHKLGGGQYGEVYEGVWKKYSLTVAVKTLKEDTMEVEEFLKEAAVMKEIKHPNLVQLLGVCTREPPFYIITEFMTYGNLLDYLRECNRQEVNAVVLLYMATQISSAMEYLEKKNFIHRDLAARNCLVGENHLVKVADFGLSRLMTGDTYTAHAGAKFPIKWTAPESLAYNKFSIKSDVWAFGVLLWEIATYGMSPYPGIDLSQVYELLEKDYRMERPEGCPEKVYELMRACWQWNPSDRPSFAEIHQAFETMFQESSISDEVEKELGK
Assay: Kinome-Wide Inhibitor Profiling for Phosphorylated c-Abl
Experimental: Inhibitor selectivity profiles were obtained through Luceome Biotechnologies (Tuscon, AZ). Each inhibitor was screened at 0.5 μM against phosphorylated c-Abl.

| Compound | Kd [nM] |
| --- | --- |
| Cc1nc(Nc2ncc(C(=O)Nc3cc(NC(=O)c4cccc(C(F)(F)F)c4)ccc3C)s2)cc(N2CCN(CCO)CC2)n1 [DAS-DFGO-II] | 2 |
| Cc1nc(Nc2ncc(C(=O)Nc3cccc(NC(=O)c4cccc(C(F)(F)F)c4)c3)s2)cc(N2CCN(CCO)CC2)n1 [DAS-DFGO-I] | 1.8 |
